Experimental data taken from patent US11912660B2, “S6K1 protein kinase inhibitors as cancer therapeutics” (Xavier University of Louisiana, priority 2020, dated 2024).
Where two headings read alike, the source gives them in different places.

How the values were obtained:
Experiment in all cases: SelectScreen kinase panel screening
Format in all cases: biochemical
[1] = biological target: FGFR1 (Homo sapiens (Human), UniProt P11362)
From the text: (§1) The complete list of the kinases given in Table 1 and their details can be found on the ThermoFisher website for Biochemical Kinase assays (thermofisher.com/us/en/home/industrial/pharma-biopharma/drug-discovery-development/target-and-lead-identification-and-validation/kinasebiology.html).

[2] = biological target: SRC (Homo sapiens (Human), UniProt P12931)
From the text: as §1

[3] = biological target: MATK (HYL) (Homo sapiens (Human), UniProt P42679)
From the text: as §1

[4] = biological target: FLT1 (VEGFR1) (Homo sapiens (Human), UniProt P17948)
From the text: as §1

[5] = biological target: MET (cMet) (Homo sapiens (Human), UniProt P08581)
From the text: as §1

[6] = biological target: FLT3 (Homo sapiens (Human), UniProt P36888)
Chain of FLT3 (P36888 27-993): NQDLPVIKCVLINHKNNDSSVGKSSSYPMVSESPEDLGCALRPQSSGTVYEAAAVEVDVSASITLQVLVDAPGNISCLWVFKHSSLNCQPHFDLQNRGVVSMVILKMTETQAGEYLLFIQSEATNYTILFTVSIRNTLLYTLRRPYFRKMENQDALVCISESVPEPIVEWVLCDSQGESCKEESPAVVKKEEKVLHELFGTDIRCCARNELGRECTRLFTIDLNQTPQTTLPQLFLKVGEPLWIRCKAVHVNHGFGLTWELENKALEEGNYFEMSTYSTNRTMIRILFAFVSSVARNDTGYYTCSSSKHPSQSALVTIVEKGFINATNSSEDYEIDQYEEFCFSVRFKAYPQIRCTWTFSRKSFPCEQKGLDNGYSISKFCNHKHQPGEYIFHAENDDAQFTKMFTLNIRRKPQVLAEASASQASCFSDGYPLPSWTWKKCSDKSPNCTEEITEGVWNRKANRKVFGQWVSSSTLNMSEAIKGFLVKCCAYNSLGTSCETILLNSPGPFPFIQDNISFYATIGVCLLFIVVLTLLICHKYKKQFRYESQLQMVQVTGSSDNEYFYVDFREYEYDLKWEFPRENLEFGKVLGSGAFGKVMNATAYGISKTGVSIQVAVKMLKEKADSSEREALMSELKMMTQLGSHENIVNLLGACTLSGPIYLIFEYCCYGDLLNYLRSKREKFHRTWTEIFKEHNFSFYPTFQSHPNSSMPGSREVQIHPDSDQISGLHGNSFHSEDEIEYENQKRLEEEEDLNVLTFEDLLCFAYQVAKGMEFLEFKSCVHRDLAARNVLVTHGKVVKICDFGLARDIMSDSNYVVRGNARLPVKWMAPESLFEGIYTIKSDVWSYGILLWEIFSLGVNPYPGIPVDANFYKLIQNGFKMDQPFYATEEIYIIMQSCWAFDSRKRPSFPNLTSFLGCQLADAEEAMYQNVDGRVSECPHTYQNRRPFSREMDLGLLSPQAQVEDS
From the text: as §1

[7] = biological target: ROS1 (Homo sapiens (Human), UniProt P08922)
From the text: as §1

[8] = biological target: EGFR (ErbB1) (Homo sapiens (Human), UniProt P00533)
From the text: as §1

[9] = biological target: BRAF (Homo sapiens (Human), UniProt P15056)
From the text: as §1

[10] = biological target: HCK (Homo sapiens (Human), UniProt P08631)
From the text: as §1

[11] = biological target: PIK3CA/PIK3R1 (p110 alpha/p85 alpha) (Homo sapiens (Human), UniProt P42336); details: read-out: % Inhibition class
From the text: as §1

[12] = biological target: IKBKB (IKK beta) (Homo sapiens (Human), UniProt O14920)
From the text: as §1

[13] = biological target: CSNK2A1 (CK2 alpha 1) (Homo sapiens (Human), UniProt P68400)
From the text: as §1

[14] = biological target: KIT (Homo sapiens (Human), UniProt P10721)
Chain of KIT (P10721 26-976): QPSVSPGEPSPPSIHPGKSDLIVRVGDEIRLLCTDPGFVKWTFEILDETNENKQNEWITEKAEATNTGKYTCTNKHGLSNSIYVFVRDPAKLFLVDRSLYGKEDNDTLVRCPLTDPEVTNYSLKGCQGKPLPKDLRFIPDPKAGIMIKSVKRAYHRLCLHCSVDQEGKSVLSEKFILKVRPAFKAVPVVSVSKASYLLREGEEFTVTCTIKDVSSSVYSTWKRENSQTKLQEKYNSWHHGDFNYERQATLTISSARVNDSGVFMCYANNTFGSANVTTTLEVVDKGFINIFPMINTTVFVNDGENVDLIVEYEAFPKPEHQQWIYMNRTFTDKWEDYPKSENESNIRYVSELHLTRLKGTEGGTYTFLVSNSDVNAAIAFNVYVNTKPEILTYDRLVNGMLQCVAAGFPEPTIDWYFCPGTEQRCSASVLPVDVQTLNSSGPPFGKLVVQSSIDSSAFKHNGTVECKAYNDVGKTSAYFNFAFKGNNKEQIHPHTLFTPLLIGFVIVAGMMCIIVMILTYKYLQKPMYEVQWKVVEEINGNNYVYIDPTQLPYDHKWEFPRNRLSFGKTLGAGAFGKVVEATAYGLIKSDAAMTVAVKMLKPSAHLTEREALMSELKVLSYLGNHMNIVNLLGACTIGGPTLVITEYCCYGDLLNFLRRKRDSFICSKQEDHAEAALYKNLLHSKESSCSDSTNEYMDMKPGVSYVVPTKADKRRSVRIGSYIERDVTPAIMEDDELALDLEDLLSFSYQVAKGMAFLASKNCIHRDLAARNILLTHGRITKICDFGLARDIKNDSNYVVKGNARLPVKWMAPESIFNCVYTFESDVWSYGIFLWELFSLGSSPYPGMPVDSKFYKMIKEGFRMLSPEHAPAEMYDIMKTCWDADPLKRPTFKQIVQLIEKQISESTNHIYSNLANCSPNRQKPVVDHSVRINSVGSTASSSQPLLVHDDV
From the text: as §1

[15] = biological target: MST4 (Homo sapiens (Human), UniProt Q9P289)
From the text: as §1

[16] = biological target: ERBB2 (HER2) (Homo sapiens (Human), UniProt P04626)
From the text: as §1

[17] = biological target: NTRK1 (TRKA) (Homo sapiens (Human), UniProt P04629)
From the text: as §1

[18] = biological target: IGF1R (Homo sapiens (Human), UniProt P08069)
From the text: as §1

[19] = biological target: JAK3 (Homo sapiens (Human), UniProt P52333)
From the text: as §1

[20] = biological target: CSF1R (FMS) (Homo sapiens (Human), UniProt P07333)
From the text: as §1

[21] = biological target: ROCK1 (Homo sapiens (Human), UniProt Q13464)
From the text: as §1

[22] = biological target: KDR (VEGFR2) (Homo sapiens (Human), UniProt P35968)
From the text: as §1

[23] = biological target: AXL (Homo sapiens (Human), UniProt P30530)
From the text: as §1

[24] = biological target: LYN A (Homo sapiens (Human), UniProt P07948)
From the text: as §1

[25] = biological target: NEK2 (Homo sapiens (Human), UniProt P51955)
From the text: as §1

[26] = biological target: JAK2 (Homo sapiens (Human), UniProt O60674)
Chain of JAK2 (O60674 whole entry): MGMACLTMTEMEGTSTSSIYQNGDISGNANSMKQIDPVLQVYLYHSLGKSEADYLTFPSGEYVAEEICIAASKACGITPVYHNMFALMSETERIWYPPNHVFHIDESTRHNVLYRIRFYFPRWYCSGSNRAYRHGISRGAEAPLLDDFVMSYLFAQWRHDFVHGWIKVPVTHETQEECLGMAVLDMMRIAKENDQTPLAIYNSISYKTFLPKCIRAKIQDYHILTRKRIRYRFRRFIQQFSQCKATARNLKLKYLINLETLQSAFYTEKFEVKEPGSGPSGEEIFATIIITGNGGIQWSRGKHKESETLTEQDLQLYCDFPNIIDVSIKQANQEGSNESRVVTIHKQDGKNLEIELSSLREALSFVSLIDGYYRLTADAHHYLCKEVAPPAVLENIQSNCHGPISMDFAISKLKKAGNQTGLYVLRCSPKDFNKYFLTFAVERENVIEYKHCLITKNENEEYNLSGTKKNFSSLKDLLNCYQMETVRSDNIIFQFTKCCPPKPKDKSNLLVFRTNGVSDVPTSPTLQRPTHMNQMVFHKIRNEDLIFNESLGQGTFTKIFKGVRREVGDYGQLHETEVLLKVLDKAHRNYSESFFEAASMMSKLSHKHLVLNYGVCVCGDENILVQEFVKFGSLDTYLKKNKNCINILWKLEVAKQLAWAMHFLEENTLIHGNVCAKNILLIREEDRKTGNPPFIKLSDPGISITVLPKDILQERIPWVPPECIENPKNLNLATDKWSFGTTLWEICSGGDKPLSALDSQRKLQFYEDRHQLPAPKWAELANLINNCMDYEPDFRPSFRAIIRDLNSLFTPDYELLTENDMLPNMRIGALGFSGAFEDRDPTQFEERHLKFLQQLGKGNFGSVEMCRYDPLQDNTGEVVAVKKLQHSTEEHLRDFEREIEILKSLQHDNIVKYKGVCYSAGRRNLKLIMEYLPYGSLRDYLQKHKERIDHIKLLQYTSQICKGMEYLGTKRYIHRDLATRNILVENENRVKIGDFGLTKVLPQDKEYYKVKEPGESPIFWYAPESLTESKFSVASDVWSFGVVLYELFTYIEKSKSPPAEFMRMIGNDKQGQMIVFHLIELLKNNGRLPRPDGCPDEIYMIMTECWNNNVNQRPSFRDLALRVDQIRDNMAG
From the text: as §1

[27] = biological target: TEK (Tie2) (Homo sapiens (Human), UniProt Q02763)
From the text: as §1

[28] = biological target: FGR (Homo sapiens (Human), UniProt P09769)
From the text: as §1

[29] = biological target: SGK (SGK1) (Homo sapiens (Human), UniProt O00141)
From the text: as §1

[30] = biological target: FRAP1 (mTOR) (Homo sapiens (Human), UniProt P42345)
From the text: as §1

[31] = biological target: PIK3CG (p110 gamma) (Homo sapiens (Human), UniProt P48736)
Chain of PIK3CG (p110 gamma) (P48736 whole entry): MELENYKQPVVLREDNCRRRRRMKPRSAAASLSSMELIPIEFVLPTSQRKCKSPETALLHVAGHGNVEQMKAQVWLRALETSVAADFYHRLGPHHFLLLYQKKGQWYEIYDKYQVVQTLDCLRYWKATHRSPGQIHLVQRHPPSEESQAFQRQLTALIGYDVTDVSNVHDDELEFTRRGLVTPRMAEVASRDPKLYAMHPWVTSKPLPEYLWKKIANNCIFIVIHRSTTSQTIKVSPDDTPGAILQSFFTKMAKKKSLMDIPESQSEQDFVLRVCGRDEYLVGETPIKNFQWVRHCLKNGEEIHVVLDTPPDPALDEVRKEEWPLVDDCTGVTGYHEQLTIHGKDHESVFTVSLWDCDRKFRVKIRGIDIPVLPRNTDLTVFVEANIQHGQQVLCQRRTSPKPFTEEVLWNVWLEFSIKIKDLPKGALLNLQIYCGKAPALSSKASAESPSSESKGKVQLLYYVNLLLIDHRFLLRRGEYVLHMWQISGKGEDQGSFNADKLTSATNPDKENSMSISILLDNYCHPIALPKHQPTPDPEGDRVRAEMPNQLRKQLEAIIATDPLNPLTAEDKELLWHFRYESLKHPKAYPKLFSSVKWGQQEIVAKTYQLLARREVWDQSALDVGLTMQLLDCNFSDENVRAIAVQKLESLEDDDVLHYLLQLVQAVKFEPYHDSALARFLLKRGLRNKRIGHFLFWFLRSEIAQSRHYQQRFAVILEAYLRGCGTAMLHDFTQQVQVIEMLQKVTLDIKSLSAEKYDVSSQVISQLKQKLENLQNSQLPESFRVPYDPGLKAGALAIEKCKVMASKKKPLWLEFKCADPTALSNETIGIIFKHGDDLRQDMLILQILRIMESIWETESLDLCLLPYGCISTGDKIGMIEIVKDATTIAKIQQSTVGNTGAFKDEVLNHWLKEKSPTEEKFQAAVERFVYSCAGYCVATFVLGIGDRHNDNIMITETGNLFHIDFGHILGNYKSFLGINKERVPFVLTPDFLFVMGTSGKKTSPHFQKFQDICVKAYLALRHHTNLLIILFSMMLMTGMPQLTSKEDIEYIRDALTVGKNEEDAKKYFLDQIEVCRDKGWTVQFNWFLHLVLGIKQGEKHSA
From the text: as §1

[32] = biological target: FGFR4 (Homo sapiens (Human), UniProt P22455)
From the text: as §1

Chain of FGFR1 (P11362 22-822): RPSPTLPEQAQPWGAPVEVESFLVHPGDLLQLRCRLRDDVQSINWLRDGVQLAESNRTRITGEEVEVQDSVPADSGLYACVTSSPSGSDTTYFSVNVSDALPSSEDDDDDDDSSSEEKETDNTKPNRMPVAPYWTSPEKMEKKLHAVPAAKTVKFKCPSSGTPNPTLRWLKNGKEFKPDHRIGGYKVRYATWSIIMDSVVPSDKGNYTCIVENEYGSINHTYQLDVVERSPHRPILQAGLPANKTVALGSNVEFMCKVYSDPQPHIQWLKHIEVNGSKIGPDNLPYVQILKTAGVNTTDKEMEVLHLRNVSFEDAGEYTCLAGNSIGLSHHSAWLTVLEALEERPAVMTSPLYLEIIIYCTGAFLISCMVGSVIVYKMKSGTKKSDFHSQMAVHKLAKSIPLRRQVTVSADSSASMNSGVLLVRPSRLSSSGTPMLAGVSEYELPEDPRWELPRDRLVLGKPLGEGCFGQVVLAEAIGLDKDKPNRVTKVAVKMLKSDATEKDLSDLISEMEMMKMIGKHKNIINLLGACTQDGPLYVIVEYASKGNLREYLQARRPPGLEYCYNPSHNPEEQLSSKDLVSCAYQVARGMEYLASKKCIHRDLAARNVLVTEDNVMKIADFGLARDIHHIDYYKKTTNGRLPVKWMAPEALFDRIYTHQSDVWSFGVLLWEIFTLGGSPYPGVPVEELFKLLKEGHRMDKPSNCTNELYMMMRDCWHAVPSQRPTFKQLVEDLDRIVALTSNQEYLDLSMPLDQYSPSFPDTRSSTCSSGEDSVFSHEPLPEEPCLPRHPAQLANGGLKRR

Nc1cc(N)c2c(c1)C(=O)NC2=O [RJ1, 4,6-diaminoisoindoline-1,3-dione]
inhibition at 10 µM ([1]; read-out: % Inhibition): 51%
inhibition at 10 µM ([1]; read-out: % Inhibition class): 40 to 80%
inhibition at 10 µM ([2]; read-out: % Inhibition): 9%
inhibition at 10 µM ([2]; read-out: % Inhibition class): < 40%
inhibition at 10 µM ([3]; read-out: % Inhibition): -5%
inhibition at 10 µM ([3]; read-out: % Inhibition class): < 40%
inhibition at 10 µM ([4]; read-out: % Inhibition): 18%
inhibition at 10 µM ([4]; read-out: % Inhibition class): < 40%
inhibition at 10 µM ([5]; read-out: % Inhibition): -4%
inhibition at 10 µM ([5]; read-out: % Inhibition class): < 40%
inhibition at 10 µM ([6]; read-out: % Inhibition): 29%
inhibition at 10 µM ([6]; read-out: % Inhibition class): < 40%
inhibition at 10 µM ([7]; read-out: % Inhibition): 3%
inhibition at 10 µM ([7]; read-out: % Inhibition class): < 40%
inhibition at 10 µM ([8]; read-out: % Inhibition): 12%
inhibition at 10 µM ([8]; read-out: % Inhibition class): < 40%
inhibition at 10 µM ([9]; read-out: % Inhibition): 19%
inhibition at 10 µM ([9]; read-out: % Inhibition class): < 40%
inhibition at 10 µM ([10]; read-out: % Inhibition): 21%
inhibition at 10 µM ([10]; read-out: % Inhibition class): < 40%
inhibition at 10 µM [11]: < 40%
inhibition at 10 µM ([12]; read-out: % Inhibition): 16%
inhibition at 10 µM ([12]; read-out: % Inhibition class): < 40%
inhibition at 10 µM ([13]; read-out: % Inhibition): 5%
inhibition at 10 µM ([13]; read-out: % Inhibition class): < 40%
inhibition at 10 µM ([14]; read-out: % Inhibition): 7%
inhibition at 10 µM ([14]; read-out: % Inhibition class): < 40%
inhibition at 10 µM ([15]; read-out: % Inhibition): 52%
inhibition at 10 µM ([15]; read-out: % Inhibition class): 40 to 80%
inhibition at 10 µM ([16]; read-out: % Inhibition): 6%
inhibition at 10 µM ([16]; read-out: % Inhibition class): < 40%
inhibition at 10 µM ([17]; read-out: % Inhibition): 5%
inhibition at 10 µM ([17]; read-out: % Inhibition class): < 40%
inhibition at 10 µM ([18]; read-out: % Inhibition): 10%
inhibition at 10 µM ([18]; read-out: % Inhibition class): < 40%
inhibition at 10 µM ([19]; read-out: % Inhibition): 28%
inhibition at 10 µM ([19]; read-out: % Inhibition class): < 40%
inhibition at 10 µM ([20]; read-out: % Inhibition): 26%
inhibition at 10 µM ([20]; read-out: % Inhibition class): < 40%
inhibition at 10 µM ([21]; read-out: % Inhibition): 21%
inhibition at 10 µM ([21]; read-out: % Inhibition class): < 40%
inhibition at 10 µM ([22]; read-out: % Inhibition): 56%
inhibition at 10 µM ([22]; read-out: % Inhibition class): 40 to 80%
inhibition at 10 µM ([23]; read-out: % Inhibition): 10%
inhibition at 10 µM ([23]; read-out: % Inhibition class): < 40%
inhibition at 10 µM ([24]; read-out: % Inhibition): 12%
inhibition at 10 µM ([24]; read-out: % Inhibition class): < 40%
inhibition at 10 µM ([25]; read-out: % Inhibition): -20%
inhibition at 10 µM ([25]; read-out: % Inhibition class): < 40%
inhibition at 10 µM ([26]; read-out: % Inhibition): 22%
inhibition at 10 µM ([26]; read-out: % Inhibition class): < 40%
inhibition at 10 µM ([27]; read-out: % Inhibition): 20%
inhibition at 10 µM ([27]; read-out: % Inhibition class): < 40%
inhibition at 10 µM ([28]; read-out: % Inhibition): 51%
inhibition at 10 µM ([28]; read-out: % Inhibition class): 40 to 80%
inhibition at 10 µM ([29]; read-out: % Inhibition): 50%
inhibition at 10 µM ([29]; read-out: % Inhibition class): 40 to 80%
inhibition at 10 µM ([30]; read-out: % Inhibition): 6%
inhibition at 10 µM ([30]; read-out: % Inhibition class): < 40%
% Inhibition ([31]; 10 μM): 11%
inhibition at 10 µM ([31]; read-out: % Inhibition): 12%
inhibition at 10 µM ([31]; read-out: % Inhibition class): < 40%
inhibition at 10 µM ([32]; read-out: % Inhibition): 20%
inhibition at 10 µM ([32]; read-out: % Inhibition class): < 40%
